Test results from patent publication US20140221361A1, “C-19 MODIFIED TRITERPENOIDS WITH HIV MATURATION INHIBITORY ACTIVITY” (priority 2013, published 2014).

tested on: recombinant NL4-3 virus (Renilla luciferase in nef, Gag P373S); test: HIV cell culture assay (luciferase reporter, MT-2 cells); format: cell-based, HIV-1; conditions: Renilla, NL43, MT-2 cells infected for 4-5 days with NLRluc recombinants; luciferase activity; serial dilutions of inhibitor
Method in brief: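 MT-2 cells infected with recombinant NL4-3 carrying Renilla luciferase in place of part of nef and Gag P373S, virus made by 293T transfection. Infection ran 4-5 days with serial inhibitor dilutions. Antiviral activity read as luciferase activity (Dual Luciferase reagents mixed with lysis buffer).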

SMILES | EC50 [nM]
COCC(C)[C@@H]1CC[C@]2(NCCN3CCS(=O)(=O)CC3)CC[C@]3(C)[C@H](CC[C@@H]4[C@@]5(C)CC=C(c6ccc(C(=O)O)cc6)C(C)(C)[C@@H]5CC[C@]43C)[C@@H]12 (stereo partly drawn) [Example B7, 4-((1R,3aS,5aR,5bR,7aR,11aS,11bR,13aR,13bR)-3a-((2-(1,1-dioxidothiomorpholino)ethyl)amino)-1-(1-methoxypropan-2-yl)-5a,5b,8,8,11a-pentamethyl-2,3,3a,4,5,5a,5b,6,7,7a,8,11,11a,11b,12,13,13a,13b-octadecahydro-1H-cyclopenta[a]chrysen-9-yl)benzoic acid] | 0.945
C/C=C1\CC[C@]2(NCCN3CCS(=O)(=O)CC3)CC[C@]3(C)[C@H](CC[C@@H]4[C@@]5(C)CC=C(c6ccc(C(=O)O)cc6)C(C)(C)[C@@H]5CC[C@]43C)[C@@H]12 [Example B13, 4-((3aS,5aR,5bR,7aR,11aS,11bR,13aR,13bS)-3a-((2-(1,1-dioxidothiomorpholino)ethyl)amino)-1-ethylidene-5a,5b,8,8,11a-pentamethyl-2,3,3a,4,5,5a,5b,6,7,7a,8,11,11a,11b,12,13,13a,13b-octadecahydro-1H-cyclopenta[a]chrysen-9-yl)benzoic acid] | 10
CC1(C)C(c2ccc(C(=O)O)cc2)=CC[C@]2(C)[C@H]3CC[C@@H]4[C@H]5[C@H](C(=O)O)CC[C@]5(NCCN5CCS(=O)(=O)CC5)CC[C@@]4(C)[C@]3(C)CC[C@@H]12 [Example B17, (1R,3aS,5aR,5bR,7aR,11aS,11bR,13aR,13bS)-9-(4-carboxyphenyl)-3a-((2-(1,1-dioxidothiomorpholino)ethyl)amino)-5a,5b,8,8,11a-pentamethyl-2,3,3a,4,5,5a,5b,6,7,7a,8,11,11a,11b,12,13,13a,13b-octadecahydro-1H-cyclopenta[a]chrysene-1-carboxylic acid] | 2070
CC([C@@H]1CC[C@]2(NCCN3CCS(=O)(=O)CC3)CC[C@]3(C)[C@H](CC[C@@H]4[C@@]5(C)CC=C(c6ccc(C(=O)O)cc6)C(C)(C)[C@@H]5CC[C@]43C)[C@@H]12)N1CCOCC1 (stereo partly drawn) [Example B20, 4-((1R,3aS,5aR,5bR,7aR,11aS,11bR,13aR,13bS)-3a-((2-(1,1-dioxidothiomorpholino)ethyl)amino)-5a,5b,8,8,11a-pentamethyl-1-(1-morpholinoethyl)-2,3,3a,4,5,5a,5b,6,7,7a,8,11,11a,11b,12,13,13a,13b-octadecahydro-1H-cyclopenta[a]chrysen-9-yl)benzoic acid] | 2.05
CC(=O)NC(C)[C@@H]1CC[C@]2(NCCN3CCS(=O)(=O)CC3)CC[C@]3(C)[C@H](CC[C@@H]4[C@@]5(C)CC=C(c6ccc(C(=O)O)cc6)C(C)(C)[C@@H]5CC[C@]43C)[C@@H]12 (stereo partly drawn) [Example B21, 4-((1R,3aS,5aR,5bR,7aR,11aS,11bR,13aR,13bS)-1-(1-acetamidoethyl)-3a-((2-(1,1-dioxidothiomorpholino)ethyl)amino)-5a,5b,8,8,11a-pentamethyl-2,3,3a,4,5,5a,5b,6,7,7a,8,11,11a,11b,12,13,13a,13b-octadecahydro-1H-cyclopenta[a]chrysen-9-yl)benzoic acid] | 8.18
COC(=O)NC(C)[C@@H]1CC[C@]2(NCCN3CCS(=O)(=O)CC3)CC[C@]3(C)[C@H](CC[C@@H]4[C@@]5(C)CC=C(c6ccc(C(=O)O)cc6)C(C)(C)[C@@H]5CC[C@]43C)[C@@H]12 (stereo partly drawn) [Example B22, 4-((1R,3aS,5aR,5bR,7aR,11aS,11bR,13aR,13bS)-3a-((2-(1,1-dioxidothiomorpholino)ethyl)amino)-1-(1-((methoxycarbonyl)amino)ethyl)-5a,5b,8,8,11a-pentamethyl-2,3,3a,4,5,5a,5b,6,7,7a,8,11,11a,11b,12,13,13a,13b-octadecahydro-1H-cyclopenta[a]chrysen-9-yl)benzoic acid] | 1.02
CC(NC(=O)C(F)(F)F)[C@@H]1CC[C@]2(NCCN3CCS(=O)(=O)CC3)CC[C@]3(C)[C@H](CC[C@@H]4[C@@]5(C)CC=C(c6ccc(C(=O)O)cc6)C(C)(C)[C@@H]5CC[C@]43C)[C@@H]12 (stereo partly drawn) [Example B23, 4-((1R,3aS,5aR,5bR,7aR,11aS,11bR,13aR,13bS)-3a-((2-(1,1-dioxidothiomorpholino)ethyl)amino)-5a,5b,8,8,11a-pentamethyl-1-(1-(2,2,2-trifluoroacetamido)ethyl)-2,3,3a,4,5,5a,5b,6,7,7a,8,11,11a,11b,12,13,13a,13b-octadecahydro-1H-cyclopenta[a]chrysen-9-yl)benzoic acid] | 1.16
CC1(C)C(c2ccc(C(=O)O)cc2)=CC[C@]2(C)[C@H]3CC[C@@H]4[C@H]5[C@H](C(=O)COS(=O)O)CC[C@]5(NCCN5CCS(=O)(=O)CC5)CC[C@@]4(C)[C@]3(C)CC[C@@H]12 [Example B24, 4-((1R,3aS,5aR,5bR,7aR,11aS,11bR,13aR,13bS)-3a-((2-(1,1-dioxidothiomorpholino)ethyl)amino)-5a,5b,8,8,11a-pentamethyl-1-(2-(sulfinooxy)acetyl)-2,3,3a,4,5,5a,5b,6,7,7a,8,11,11a,11b,12,13,13a,13b-octadecahydro-1H-cyclopenta[a]chrysen-9-yl)benzoic acid] | 1000
CC1(C)C(c2ccc(C(=O)O)cc2)=CC[C@]2(C)[C@H]3CC[C@@H]4[C@H]5[C@H](C(=O)CO)CC[C@]5(NCCN5CCS(=O)(=O)CC5)CC[C@@]4(C)[C@]3(C)CC[C@@H]12 [Example B25, 4-((1R,3aS,5aR,5bR,7aR,11aS,11bR,13aR,13bS)-3a-((2-(1,1-dioxidothiomorpholino)ethyl)amino)-1-(2-hydroxyacetyl)-5a,5b,8,8,11a-pentamethyl-2,3,3a,4,5,5a,5b,6,7,7a,8,11,11a,11b,12,13,13a,13b-octadecahydro-1H-cyclopenta[a]chrysen-9-yl)benzoic acid] | 110
COC(=O)N[C@@H]1CC[C@]2(NCCN3CCS(=O)(=O)CC3)CC[C@]3(C)[C@H](CC[C@@H]4[C@@]5(C)CC=C(c6ccc(C(=O)O)cc6)C(C)(C)[C@@H]5CC[C@]43C)[C@@H]12 [Example B26, 4-((1R,3aR,5aR,5bR,7aR,11aS,11bR,13aR,13bS)-3a-((2-(1,1-dioxidothiomorpholino)ethyl)amino)-1-((methoxycarbonyl)amino)-5a,5b,8,8,11a-pentamethyl-2,3,3a,4,5,5a,5b,6,7,7a,8,11,11a,11b,12,13,13a,13b-octadecahydro-1H-cyclopenta[a]chrysen-9-yl)benzoic acid] | 2.85
CC1(C)C(c2ccc(C(=O)O)cc2)=CC[C@]2(C)[C@H]3CC[C@@H]4[C@H]5[C@H](C(=O)N6CCOCC6)CC[C@]5(NCCN5CCS(=O)(=O)CC5)CC[C@@]4(C)[C@]3(C)CC[C@@H]12 [Example B27, 4-((1R,3aS,5aR,5bR,7aR,11aS,11bR,13aR,13bS)-3a-((2-(1,1-dioxidothiomorpholino)ethyl)amino)-5a,5b,8,8,11a-pentamethyl-1-(morpholine-4-carbonyl)-2,3,3a,4,5,5a,5b,6,7,7a,8,11,11a,11b,12,13,13a,13b-octadecahydro-1H-cyclopenta[a]chrysen-9-yl)benzoic acid] | 8.11
